# Data taken from article PMC10459042, “Synthesis of 1,2,3-Triazole-Containing Methoxylated Cinnamides and Their Antileishmanial Activity against the Leishmania braziliensis Species” (Pharmaceuticals, 2023).
# Assays:
# [1] = tested on: L. braziliensis-infected macrophages; test: Treatment of infected macrophages; format: cell-based, Leishmania braziliensis; details: 48 h at 37 °C; for Number of Amastigotes per Cell after treatment: untreated 10.3; for Percentage of Infected Macrophages after Treatment: untreated 92.8
# Description: Murine macrophages (5 × 10^5 cells) were plated on round glass coverslips in 24-well plates in RPMI 1640 medium with added 20% FBS and 20 mmol/L L-glutamine at pH 7.4 and incubated for 24 h at 37 °C in 5% CO2. Promastigotes were added to the wells (at a ratio of 10 parasites per macrophage), and cultures were incubated for 48 h at 37 °C in a 5% CO2 environment. Free parasites were removed by extensive washing with RPMI 1640 medium, and the infected macrophages were treated with Compound 28 or AmpB (0, 1.0, 2.5 and 5.0 µg/mL in both cases) for 48 h at 37 °C in 5% CO2.
# (§1) To evaluate the inhibition of infection, promastigotes (5 × 10^6 cells) were first incubated with Compound 28 or AmpB (0, 1.0, 2.5 and 5.0 µg/mL in both cases) for 4 h at 24 °C; these were then used to infect murine macrophages (at a ratio of 10 parasites per macrophage) and incubated for 24 h at 37 °C in 5% CO2. Then, cells were fixed with 4% paraformaldehyde, washed, and stained with Giemsa. The percentage of infected macrophages and the number of recovered amastigotes were determined by counting 200 cells, in triplicate, using an optical microscope.
# [2] = tested on: L. braziliensis promastigotes; test: ROS production in promastigotes (H2DCFDA); format: cell-based, Leishmania braziliensis; details: one IC50 value, 48 h at 24 °C
# Description: After treatment with Compound 28 (at a concentration corresponding to one IC50 value) for 48 h at 24 °C, L. braziliensis promastigotes were washed with PBS, and the parasite concentration was adjusted to 3 × 10^6 cells per well. H2DCFDA (Sigma-Aldrich, St. Louis, MO, USA) was then added and incubated for 30 min in the dark, and samples were read in a fluorometric microplate reader (FLx800, BioTek Instruments, Winooski, VT, USA) with excitation and emission wavelengths of 485 and 528 nm, respectively. Parasites that were untreated or treated with Compound 28 and not labeled with the fluorescent probe were used as the blank.
# Figure 4 ΔΨm and ROS production in Leishmania after exposure to Compound 28. Leishmania braziliensis promastigotes were not exposed (negative control) or exposed to Compound 28 (at a concentration corresponding to the IC50 value) for 48 h. (A) Depolarization of ΔΨm was evaluated using the JC-1 fluorescent probe. Samples were analyzed fluorometrically, and the results are expressed as the ratio of red/green fluorescence. FCCP ([…]) was used as a positive control. (B) ROS production was evaluated using the H2DCFDA probe. The fluorescence intensity was measured by fluorimetry, and the results are expressed as the fold increase in the ROS level compared with the non-treated control. H2O2-treated parasites were used as a positive control. […]
# [3] = tested on: L. braziliensis promastigotes infecting murine macrophages; test: Inhibition of infection (parasites pre-incubated with compound, then used to infect macrophages); format: cell-based, Leishmania braziliensis; details: for Number of Amastigotes per Cell using pre-incubated parasites: untreated 8.9; for Percentage of Infected Macrophages Using Pre-Incubated Parasites: untreated 90.5
# Description: as §1
# [4] = tested on: Leishmania braziliensis promastigotes; test: Depolarization of mitochondrial membrane potential (ΔΨm), JC-1; format: cell-based; details: one IC50 value, 48 h at 24 °C; non-treated parasites 7.2
# Description: Leishmania braziliensis promastigotes (1 × 10^7 cells/mL) were treated with compound 28 (at a concentration corresponding to one IC50 value) for 48 h at 24 °C. The parasites (3 × 10^6 cells/mL) were then labeled with JC-1 (5 µg/mL, Sigma-Aldrich, St. Louis, MO, USA) for 30 min at 37 °C. After washing twice with PBS to remove the non-internalized dye, the samples were added to a black 96-well plate, and the ΔΨm was analyzed in a spectrofluorometer (FLx800, BioTek Instruments, Winooski, VT, USA) with an excitation filter of 485 nm and emission wavelength of 528 nm and […] to measure the green and red fluorescence, respectively. The ΔΨm was determined using the ratio between the red/green fluorescence intensity. Parasites that were exposed to 1.3 µg/mL (5.0 µmol/L) of FCCP (Sigma-Aldrich, St. Louis, MO, USA) for 20 min were used as a control. […]
# Figure 4 ΔΨm and ROS production in Leishmania after exposure to Compound 28. […] (A) Depolarization of ΔΨm was evaluated using the JC-1 fluorescent probe. Samples were analyzed fluorometrically, and the results are expressed as the ratio of red/green fluorescence. […] (B) ROS production was evaluated using the H2DCFDA probe. The fluorescence intensity was measured by fluorimetry, and the results are expressed as the fold increase in the ROS level compared with the non-treated control. […]
# [5] = Cytotoxicity in mammalian cells (MTT); format: cell-based; details: mouse; murine macrophages, 48 h at 37 °C in 5% CO2, MTT, mean ± standard deviation
# Description: The in vitro antileishmanial activity was evaluated by incubating the promastigotes or axenic amastigotes (1 × 10^6 cells/well) with the 24 synthetic derivatives (Compounds 5–28; 0 to 600 µg/mL) in 96-well culture plates (Nunc, Nunclon, Roskilde, Denmark) for 48 h at 24 °C. Due to the difficulty in obtaining a high concentration of murine macrophages, the cytotoxicity experiment was evaluated by incubating such cells (5 × 10^5 per mL) with Compound 28 (0 to 600 µg/mL), which presented the best antileishmanial activity, for 48 h at 37 °C in a 5% CO2 environment. AmpB (0 to 10 µg/mL; Sigma-Aldrich, St. Louis, MO, USA) was used as a positive control in both experiments. The cell viability was assessed using the 3-(4.5-dimethylthiazol-2-yl)-2.5-diphenyl tetrazolium bromide (MTT, Sigma-Aldrich, St. Louis, MO, USA) method. The optical density (OD) values were read using a microplate spectrophotometer (Molecular Devices, Spectra Max Plus, San Jose, CA, USA) at 570 nm. Results were entered into Microsoft Excel (version 10.0) spreadsheets, and the 50% Leishmania and macrophage inhibitory concentrations (IC50 and CC50, respectively) were calculated by applying a sigmoidal regression of the dose–response curve. The SI was calculated by dividing the CC50 with the respective IC50 values.
# [6] = tested on: Leishmania braziliensis axenic amastigotes; test: In vitro antileishmanial activity against axenic amastigotes (MTT); format: cell-based
# How it was run: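 Axenic amastigotes, made by 48 h incubation of stationary promastigotes in FBS at 37 °C, were exposed at 1 × 10^6 cells/well to compound (0 to 600 µg/mL) for 48 h at 24 °C. Viability by MTT, OD 570 nm; IC50 from sigmoidal dose–response regression.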
# [7] = parasites pre-incubated with 1.0 µg/mL at 24 °C
# [8] = parasites pre-incubated with 2.5 µg/mL at 24 °C
# [9] = parasites pre-incubated with 5.0 µg/mL at 24 °C
compound,measurement,setting,value
"CCN(CC)c1ccc2cc(-n3cc(CNC(=O)/C=C/c4ccc(OC)c(OC)c4)nn3)c(=O)oc2c1 [Compound 28, N-((1-(7-(diethylamino)-2-oxo-2H-chromen-3-yl)-1H-1,2,3-triazol-4-yl)methyl) (3,4-dimethoxy) cinnamide]",Number of Amastigotes per Cell after treatment,[1]; 1.0 µg/mL,6.7
same,Percentage of Infected Macrophages after Treatment,[1]; 1.0 µg/mL,79.5%
same,Number of Amastigotes per Cell after treatment,[1]; 2.5 µg/mL,4.0
same,Percentage of Infected Macrophages after Treatment,[1]; 2.5 µg/mL,70.3%
same,Number of Amastigotes per Cell after treatment,[1]; 5.0 µg/mL,2.9
same,Percentage of Infected Macrophages after Treatment,[1]; 5.0 µg/mL,60.2%
same,melting point,,197 to 198.4 °C
same,Fold increase in ROS production compared with untreated parasites,[2],2.5 fold
same,Number of Amastigotes per Cell using pre-incubated parasites,[3]; [7],5.8
same,Percentage of Infected Macrophages Using Pre-Incubated Parasites,[3]; [7],84.5%
same,Number of Amastigotes per Cell using pre-incubated parasites,[3]; [8],4.9
same,Percentage of Infected Macrophages Using Pre-Incubated Parasites,[3]; [8],80.5%
same,Number of Amastigotes per Cell using pre-incubated parasites,[3]; [9],3.6
same,Percentage of Infected Macrophages Using Pre-Incubated Parasites,[3]; [9],71.5%
same,"ΔΨm, JC-1 ratio of red/green fluorescence",[4],4.0
same,CC50 at 48 h,[5],> 600 µg/mL
same,IC50 Axenic Amastigotes,"[6]; 48 h at 24 °C, MTT, mean ± standard deviation",87.8 ± 9.7 µg/mL
same,"Selectivity index (SI), ratio CC50/IC50, axenic amastigotes",[6]; CC50 murine macrophages / IC50 axenic amastigotes,13.3
same,IC50,"[6]; Leishmania braziliensis, 48 h, 48 h at 24 °C, MTT, mean ± standard deviation",88 ± 9.7 µg/mL
